The subject of data set [1] is several cancer cell lines. Kind of data set: Cytotoxic effects against several cancer cell lines in vitro. It counts as cell-based.
Description: The cytotoxicity was determined by colorimetric MTT (3-(4,5-dimethylthiazole-2-yl)-2,5-diphenyl-1H-tetrazolium bromide)(Sigma, St. Louis, Mo.) assay as described previously (Wei, Bai-Luh et al. (2000), Eur. J. Med. Chem., 35, 1089-1098). Briefly, cells (5×10^3/well) were plated in 96-well plates and incubated in medium for 6 h, followed by addition of serial dilutions (50 μL/well) of each of the tested compounds. After incubation at 37° C. for 5 or 6 days, the cells were pulsed with 10 μL of MTT (5 mg/mL) and incubated for an additional 4 h at 37° C. Reduced MTT was measured spectrophotometrically using a Dynatech MR 5000 microplate reader (Dynatech Laboratories, Va.) at 550 nm after lysis of cells with 100 μL of 10% SDS in 0.01 M HCl. Control wells contained medium plus cells (total absorbance) or medium alone (background absorbance).
Data set [2] concerns HepG2 cells (human hepatoma).
Description: (§1) For the microassay, the growth medium was supplemented with 10 mM HEPES buffer (pH 7.3) and incubated at 37° C. in a CO2 incubator.
(§2) The cytotoxicity was determined by colorimetric MTT (3-(4,5-dimethylthiazole-2-yl)-2,5-diphenyl-1H-tetrazolium bromide)(Sigma, St. Louis, Mo.) assay as described previously (Wei, Bai-Luh et al. (2000), Eur. J. Med. Chem., 35, 1089-1098). Briefly, cells (5×10^3/well) were plated in 96-well plates and incubated in medium for 6 h, followed by addition of serial dilutions (50 μL/well) of each of the tested compounds. After incubation at 37° C. for 5 or 6 days, the cells were pulsed with 10 μL of MTT (5 mg/mL) and incubated for an additional 4 h at 37° C. Reduced MTT was measured spectrophotometrically using a Dynatech MR 5000 microplate reader (Dynatech Laboratories, Va.) at 550 nm after lysis of cells with 100 μL of 10% SDS in 0.01 M HCl. Control wells contained medium plus cells (total absorbance) or medium alone (background absorbance). Cell death was calculated as the percentage of MTT inhibition:
(§3) In the experiment, 5-fluorouracil(5-Fu) was used as a positive control.
Data set [3] relates to Hep3B cells (human hepatoma).
Description: as §1, §2, §3
The subject of data set [4] is HT-29 cells (human colorectal adenocarcinoma).
Description: as §1, §2, §3
Data set [5] relates to HepG2 cells (human hepatoma). In words: In vitro anticancer assay (cytotoxicity), MTT, HepG2. The note with it: for Cytotoxic activity against HepG2 cells (in words): in vitro; for EC50: Homo sapiens, HepG2, read-out: Cytotoxicity ED50, HepG2.
Description: as §1, §2, §3
The subject of data set [6] is Hep3B cells (human hepatoma). In words: In vitro anticancer assay (cytotoxicity), MTT, Hep3B. Conditions: for EC50: Homo sapiens, Hep3B, read-out: Cytotoxicity ED50, Hep3B.
Description: as §1, §2, §3
In data set [7] the test system is HT-29 cells (human colorectal adenocarcinoma). Kind of data set: In vitro anticancer assay (cytotoxicity), MTT, HT-29. Conditions: for EC50: Homo sapiens, HT-29, read-out: Cytotoxicity ED50, HT-29.
Description: as §1, §2, §3
Data set [8] deals with MCF-7 cells (human breast adenocarcinoma). In words: In vitro anticancer assay (cytotoxicity), MTT, MCF-7. Conditions: for EC50: Homo sapiens, MCF7, read-out: Cytotoxicity ED50, MCF-7; for Cytotoxic activity against MCF-7 cells (in words): in vitro.
Description: as §1, §2, §3
For data set [9] the test system is unchanged.
Description: as §1, §2, §3
The test system of data set [10] is MCF-7 cells. Kind of data set: Flow cytometry analysis (cell cycle, sub-G1, propidium iodide). It is filed as cell-based, human. As for the experimental part: DNA contents were analyzed by flow cytometry, and apoptosis was measured by the accumulation of sub-G1 DNA contents in cells. Results were representative of three independent experiments; and
Flow cytometry was used to determine the change of cell cycle of human cancer cells caused by the treatment of a compound according to this invention.
MCF cells (1×10^4 cells/mL) were treated with various concentrations (6.9, 13.7, and 27.5 μM) of Compound 16 for different time periods (24 h, 48 h and 72 h), followed by washing with PBS so as to terminate the reaction. After fixation with 4% paraformaldehyde/PBS (pH 7.4) at room temperature for 30 min, the cells were centrifuged at 1,000 rpm for 10 min and then permeabilized with 0.1% Triton-X-100/0.1% sodium citrate at 4° C. for 2 min. Subsequently, propidium iodide (Sigma) in PBS (10 μg/mL) was added to stain the cells at 37° C. for 30 min. The intensity of fluorescence was measured with a FACScan flow cytometer (Becton Dickinson, Mountain View, Calif.). A minimum of 5000 cell counts was collected for the analysis by LYSIS II Software.
It has been recognized that apoptotic cells have reduced DNA stainability with a variety of fluorochromes (Ojeda, F. et al. (1990), Cell Immunol., 125:535-539; Afanasev, V. N. et al. (1986), FEBS Lett., 194: 347-350). The appearance of cells with low DNA stainability forms a “sub-G1 peak”, which has been considered to be the hallmark of cell death by apoptosis (Darzynkiewicz, Z. et al. (1992), Cytometry, 13, 795-808). […] In this invention, the applicants proposed that the NHA derivatives might induce cell death by the same way. MCF-7 cells were treated with different concentrations of representative Compound 16 for different time periods.
For orientation: Flow cytometry measures light scatter and fluorescence of single cells or particles in a stream.

Data set [11] concerns MCF-7 cells. In words: DNA fragmentation assay (agarose gel electrophoresis). It counts as cell-based, human. The note with it: 48 and 72 h incubation, 6.9, 13.7 and 27.5 μM. As for the experimental part:
Results were representative of three independent experiments.
DNA fragmentation in general is used to characterize cell death by apoptosis (Wyllic, A. H. et al. (1980), Int. Rev. Cytol., 68:251-306; Arends, M. J. and Wyllic, A. H. (1991), Int. Rev. Exp. Pathol., 32:223-254). Apoptosis of MCF-7 cells after treatment with the representative Compound 16 was also studied by DNA fragmentation assay.
MCF cells (1×10^4 cells/mL) in 150-mm plates were treated with various concentrations (6.9, 13.7, and 27.5 μM) of Compound 16 for different time periods (24 h, 48 h and 72 h), followed by washing with PBS so as to terminate the reaction. After the addition of 100 μL lysis buffer [1% of NP-40 (Sigma) in 20 mM EDTA, 50 mM Tris-HCl, pH 7.5] and mixing, the resultant cell lysates were centrifuged at 14,000 rpm for 5 min and the supernatants were collected. The supernatants were incubated with 50 μL of RNase A (20 mg/mL) and 20 μL of SDS (10%) at 56° C. for 2 h. Thereafter, 35 μL of proteinase K (20 mg/mL) was added and the resultant mixture was incubated at 37° C. overnight. DNA fragments were precipitated after the addition of 150 μL of 10M NH4OAc and 1.2 mL of 100% ethanol at −20° C. overnight. After centrifuging and drying, the thus-obtained DNA pellets were re-suspended in 15 μL Tris-EDTA buffer and electrophoresed on a 1% agarose gel in TBE buffer at 30 V for 8 h. […]

Data set [12] concerns HepG2 cells (human hepatoma). The note with it: Wei, Bai-Luh et al. (2000); read-out: ED50, HepG2 (applicants' earlier study); cited from earlier work.
The subject of data set [13] is Hep3B cells (human hepatoma). The note with it: Wei, Bai-Luh et al. (2000); read-out: ED50, Hep3B (applicants' earlier study); cited from earlier work.

Like-named read-outs stand apart in the source and are kept apart here.

Take `O=C1c2ccccc2C(=O)c2c(O)cc(O)cc21` [Compound 1, 1,3-dihydroxy-9,10-anthraquinone]: the “Cytotoxic effects against several cancer cell lines (in words)” value in data set [1] is given as “failed to show cytotoxic effects”.
On to `O=C1c2ccccc2C(=O)c2c(O)cc(OCCCBr)cc21` [Compound 2, 1-hydroxy-3-(3-bromopropoxy)-9,10-anthraquinone], for which, in [2], the “Cytotoxic activity against HepG2 cells (in words)” value is “no significant cytotoxic activity”. For the same compound, in data set [3], the “Cytotoxic activity against Hep3B cells (in words)” value was “no significant cytotoxic activity”. For the same compound, the “Cytotoxic activity against HT-29 cells (in words)” value in data set [4] is given as “no significant cytotoxic activity”.
As for `O=C1c2ccccc2C(=O)c2cc(O)ccc21` [Compound 3, 3-hydroxy-9,10-anthraquinone], the “Cytotoxic activity against HepG2 cells (in words)” value in [5] is on record as “no significant cytotoxic activity”. For the same compound, the “Cytotoxic activity against Hep3B cells (in words)” value in data set [6] (in vitro) was “no significant cytotoxic activity”. The “Cytotoxic activity against HT-29 cells (in words)” value in data set [7] (in vitro) is given as “no significant cytotoxic activity”.
`O=C1c2ccccc2C(=O)c2cc(OCCCBr)ccc21` [Compound 4, 3-(3-bromopropoxy)-9,10-anthraquinone]: in data set [2], the “Cytotoxic activity against HepG2 cells (in words)” value is recorded as “no significant cytotoxic activity”. The “Cytotoxic activity against Hep3B cells (in words)” value in data set [3] was “no significant cytotoxic activity”. Also, the “Cytotoxic activity against HT-29 cells (in words)” value in data set [4] is on record as “no significant cytotoxic activity”.
With `CC(C)=CCc1c(O)cc(O)c2c1C(=O)c1ccccc1C2=O` [Compound 5, 1,3-Dihydroxy-4-prenyl-9,10-anthraquinone], the EC50 in data set [5] worked out at 1.23 ± 0.05 µM; in data set [6], 9.09 µM; in [7], 56.2 µM; in [8] it was 172 µM. In data set [5], the “Cytotoxic activity against HepG2 cells (in words)” value is “potent cytotoxicity”.
Take `O=c1[nH]cc(F)c(=O)[nH]1` [Compound 5-FU, 5-fluorouracil, reference compound]: the EC50 in data set [5] came out at 0.25 µM; in data set [6], 0.55 µM; in data set [7] it was 0.57 µM.
For `CC(C)NCCCOc1cc(O)c2c(c1)C(=O)c1ccccc1C2=O` [Compound 6, 1-Hydroxy-3-[3-(isopropylamino)-propoxy]-9,10-anthraquinone] the same measures were 5.52 µM, 5.97 µM and 4.72 µM.
On the same counts, the results for `CC(C)(C)NCCCOc1cc(O)c2c(c1)C(=O)c1ccccc1C2=O` [Compound 7, 3-[3-(tert-Butylamino)-propoxy]-1-hydroxy-9,10-anthraquinone] are 5.3 µM, 6.8 µM and 7.93 µM.
For `CCCCNCCCOc1cc(O)c2c(c1)C(=O)c1ccccc1C2=O` [Compound 8, 3-[3-(Butylamino)-propoxy]-1-hydroxy-9,10-anthraquinone] the same measures were 4.42 µM, 7.93 µM and 6.52 µM.
Consider `CCN(CC)CCCOc1ccc2c(c1)C(=O)c1ccccc1C2=O` [Compound 9, 3-[3-(Diethylamino)-propoxy]-9,10-anthraquinone], for which the EC50 in data set [5] came out at 17.2 µM; in [6] it was 12.8 µM; in data set [7], 11.9 µM; in data set [8], 16.1 µM.
On the same counts, the results for `CCCNCCCOc1ccc2c(c1)C(=O)c1ccccc1C2=O` [Compound 10, 3-[3-(Propylamino)-propoxy]-9,10-anthraquinone] are 8.92 µM, 12.4 µM, 6.19 µM and 8.36 µM.
Consider `CC(C)NCCCOc1ccc2c(c1)C(=O)c1ccccc1C2=O` [Compound 11, 3-[3-(Isopropylamino)-propoxy]-9,10-anthraquinone], for which the “Cytotoxic activity against HepG2 cells (in words)” value in data set [2] was “potent cytotoxic activity”. The EC50 was determined as 5.39 µM in [5], 11.5 µM in data set [6], 7.12 µM in data set [7] and 11.5 µM in data set [8].
Turning to `CCCCNCCCOc1ccc2c(c1)C(=O)c1ccccc1C2=O` [Compound 12, 3-[3-(Butylamino)-propoxy]-9,10-anthraquinone], the EC50 came to 7.12 µM in [5], 14.2 µM in data set [6], 14.5 µM in data set [7] and 10.4 µM in data set [8].
On the same counts, the results for `CC(C)CNCCCOc1ccc2c(c1)C(=O)c1ccccc1C2=O` [Compound 13, 3-[3-(Isobutylamino)-propoxy]-9,10-anthraquinone] are 10.4 µM, 9.26 µM, 7.72 µM and 14.2 µM.
As to `CC(C)(C)NCCCOc1ccc2c(c1)C(=O)c1ccccc1C2=O` [Compound 14], the EC50 worked out at 17.5 µM in data set [2], 23.2 µM in data set [3], 12.9 µM in [4] and 20.8 µM in [9].
As for `O=C1c2ccccc2C(=O)c2cc(OCCCNC3CCCCC3)ccc21` [Compound 15, 3-[3-(Cyclohexylamino)-propoxy]-9,10-anthraquinone], the “Cytotoxic activity against Hep3B cells (in words)” value in data set [3] was “stronger cytotoxic activities”. For the same compound, the “Cytotoxic activity against HT-29 cells (in words)” value in data set [4] was “stronger cytotoxic activities”. Further, the EC50 in data set [5] came to 16 µM; in [6], 4.96 µM; in data set [7], 3.86 µM; in [8], 5.79 µM. In addition, the “Cytotoxic activity against MCF-7 cells (in words)” value in data set [8] is “stronger cytotoxic activities”.
Turning to `CN1CCN(CCCOc2ccc3c(c2)C(=O)c2ccccc2C3=O)CC1` [Compound 16], in data set [10] (6.9, 13.7, 27.5 μM), the cell cycle effect result was “arrest G2/M and S phases”. Besides, the “sub-G1 peak in DNA histograms” value in [10] (6.9, 13.7, 27.5 μM, 24, 48, 72 h) is “detected”. In data set [10] (at 72 h), this compound gave a maximum apoptosis cells of 19.97%. In addition, in [11], the DNA fragmentation result was “significantly observed”. The “Cytotoxic activity against HepG2 cells (in words)” value in data set [2] is reported as “less potent cytotoxic activity”. In addition, the “Cytotoxic activity against Hep3B cells (in words)” value in data set [3] is “less potent cytotoxic activity”. In data set [4], the “Cytotoxic activity against HT-29 cells (in words)” value is on record as “potent cytotoxic activity”. The EC50 in [5] amounted to 8.41 µM; in data set [6], 13.7 µM; in data set [7] it was 4.67 µM; in [8], 3.02 µM. Further, in [8], the “Cytotoxic activity against MCF-7 cells (in words)” value is reported as “potent cytotoxic activity”.
`CN(C)CCCOc1cc(O)c2c(c1)C(=O)c1ccccc1C2=O` [Compound 19, 1-hydroxy-3-[3-(dimethylamino)-propoxy]-9,10-anthraquinone]: the results for the EC50 in [12] and in data set [13] were approximately 2.6 µM and approximately 7.1 µM, respectively.

The values are drawn from patent US20080027141A1, “1,3-Dihydroxyl-9,10-anthraquinone and 3-[(3-amino)-propoxy]- 9,10-anthraquinone derivatives and pharmaceutical compositions comprising the same” (Kaohsiung Medical University, priority 2006, published 2008).
